Assay results taken from patent US20100226980A1, “NOVEL TABLET BASED ON S-ADENOSYL-METHIONINE” (VETOQUINOL, priority 2009, published 2010).

Assay: Pharmacokinetic tests on dogs
Format: in vivo
Experimental: In order to confirm the results obtained in vitro, pharmacokinetic tests were carried out on dogs.

Question: With `C[S+](CC[C@H](N)C(=O)O)C[C@H]1O[C@@H](n2cnc3c(N)ncnc32)[C@H](O)[C@@H]1O.Cc1ccc(S(=O)(=O)[O-])cc1` (stereo partly drawn) [SAMe, S-Adenosyl-Methionine Paratoluene Sulphonate] as the compound, how does the “absorption of SAMe” value (after administration of tablet) read?
Answer: absorbed in the stomach as soon as it is administered

Question: What about the “degradation of SAMe” value (after administration of tablet) of the same compound?
Answer: not degraded

Question: What about the “pharmacokinetic profiles of the different dogs” value (variability between animals) of the same compound?
Answer: homogeneous and vary very little
